From patent US20250136555A1 (HARBIN MEDISAN PHARMACEUTICAL CO., LTD., priority 2022, published 2025) come the findings set out here.

The test system of this assay is hepatic fibrosis model mice. Kind of assay: Tetrachloromethane-induced hepatic fibrosis in mice. The assay is classed as in vivo, C57 mice. As for the experimental part: Animals: 30 male C57 mice, SPF grade, 8 weeks old, weighing about 20 g, purchased from Beijing Vital River. All animals maintained a 12-hour alternating circadian rhythm and were given ad libitum access to food and water. […] The mice were all fed food and water normally, and the modeling lasted for 3 weeks. The mice in the model group and each of the administration groups were injected twice a week with a 25% CCl4 oil solution at a dose of 2 mL/kg, and the mice in the control group were injected with an oil solvent with the same volume. The administration was started at the same time of molding. […] After 3 weeks of administration, the mice were all fed food and water normally. Each group of mice was weighed every day, and their body weight, hair, feces, and activities were carefully observed and recorded. Twenty-four hours after the sixth injection of CCl4, the mice were dissected for sampling. Blood was collected from the orbit, the mice were euthanized, and the liver was collected. The right lobular tissue of the liver was fixed with 4% paraformaldehyde and used for sectioning followed by HE and sirius red staining. Part of liver tissues were divided into 3 parts and snap-frozen in liquid nitrogen for subsequent assays of other indexes. The pre-treated tissue was sent to Wuhan Servicebio Technology Co., Ltd. for preparing HE-stained sections and sirius red-stained sections. The liver tissue stored at −80° C. was taken and placed in liquid nitrogen, and about 200 mg of liver tissue was rapidly cut off. Hydroxyproline in the liver tissue was assayed according to the method in the product's instruction (Beijing Solarbio Science & Technology Co., Ltd., BC0255).

In the case of `Cc1cc(CN2C(=O)CN(c3ccc(C(F)(F)F)cc3)C2=O)cc(C)c1OC(C)(C)C(=O)O` [Compound 1, 2-(4-((2,5-Dioxo-3-(4-(trifluoromethyl)phenyl)imidazolidin-1-yl)methyl)-2,6-dimethylphenoxy)-2-methylpropionic Acid], where the note is “CCl4 model”, the “collagen deposition in liver, sirius red staining (FIG. 15)” value is reported as “significantly reduce collagen deposition”; the “effect on the hepatic fibrosis mouse model (conclusion)” value is “protective effect”; the “inflammatory infiltration in liver, HE staining (FIG. 14)” value is “reduce inflammatory infiltration”. Also, the “hydroxyproline content in the liver (FIG. 13)” value (CCl4 model, 0.03 and 0.1 mg/kg intragastric daily, 3 weeks) is on record as “dose-dependently reduce the hydroxyproline content”. Moreover, the “improving effect on collagen deposition versus GFT505” value (compound 1 0.1 mg/kg vs GFT505 10 mg/kg) was “superior to that of GFT505 at 10 mg/kg”. Also, the “effect on hydroxyproline content versus GFT505” value (compound 1 0.1 mg/kg vs GFT505 at 30 mg/kg (so in the source)) was “superior to that of GFT505 at 30 mg/kg”.
